Source: US20260182575A1, “MOLECULES HAVING PESTICIDAL UTILITY AND INTERMEDIATES AND PROCESSES RELATED THERETO” (CORTEVA AGRISCIENCE LLC, priority 2022, published 2026)

Assays:
Assay type in all cases: in vivo
[1] = system: Fall Armyworm (Spodoptera frugiperda, LAPHFR, FAW); experiment: Bioassay 4: fall armyworm, artificial diet, 128-cell tray; conditions: AI alone
Method in brief: (§1)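 Test solutions (0.0000004–0.04% w/v, i.e. 0.00005–5 μg/cm² on diet) were pipetted onto artificial lepidopteran diet and one 2nd-instar larva was placed per cell, 8 replicates per species, held at ~26° C. Live larvae were counted after 5 days; percent control used Abbott's correction against a solvent check.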

[2] = system: Corn Earworm (Helicoverpa zea, HELIZE, CEW); experiment: Bioassay 4: corn earworm, artificial diet, 128-cell tray; conditions: AI alone
Method in brief: as §1

[3] = system: Western Flower Thrips (Frankliniella occidentalis, FRANOC, WFT); experiment: Bioassay 3: western flower thrips, cotton leaf disc dip; conditions: 3 days
Experimental: Stock solutions of F1 and various active ingredients were prepared initially at a concentration of 0.1 mg/mL using acetone as a diluent. Stock solutions were prepared with F1 as well as for each of the active ingredients individually. Test solutions were prepared from the stock solutions. Test solutions were prepared containing F1, the individual active ingredients, and mixtures of F1 with each of the active ingredients. The test solutions for F1 and the individual active ingredients were prepared by adding 500 μL of stock solution to a 25 mL glass vial, then adding 500 μL of acetone, followed by the addition of 9 mL water with 0.025% Tween® 20 to create a 0.0005% (w/v) solution. The test solutions containing mixtures of F1, and the individual active ingredients were prepared by adding 500 μL of the active ingredient stock solution to a 25 mL glass vial, followed by 500 μL of the F1 stock solution, then by the addition of 9 mL water with 0.025% Tween® 20 to create a test solution containing 0.0005% (w/v) F1 and 0.0005% (w/v) of the active ingredient. Each test solution was serially diluted to create desired doses of test solutions (0.0005% (w/v), 0.000125% (w/v), 0.00003125% (w/v), 0.0000078% (w/v), and 0.00000195% (w/v)).
The test solutions were tested against WFT using the following procedure: Leaf discs (2.7 cm in diameter) were cut from the true leaves of cotton plants. Leaf discs were dipped into the test solutions and shaken to ensure complete coverage of the leaf disc and then placed in Millipore® PetriSlides containing a filter paper disc. Treated leaf discs were air dried for approximately 1 hour. Each leaf disc was infested with 5 WFT (9-10-day old nymphs) by placement on each leaf disc, and the PetriSlides were capped to prevent escape. Each treatment was replicated three times and the test treatments were held at approximately 26° C. and ambient relative humidity (RH) prior to grading. Reference discs (solvent check) were treated with the diluent only. Evaluation was conducted by counting the number of live WFT under magnification 3 days after treatment. Percent control was measured using Abbott's correction formula (W. S. Abbott, J. Econ. Entomol. 18 (1925), pp. 265-267) as follows:
where X=No. of live nymphs on solvent check leaf discs and Y=No. of live nymphs on treated leaf discs. In Table B3 the “Expected % Control” was calculated using the method described in Colby S. R., Weeds, 1967, 15, 20-22. Bioassay 4: Corn Earworm (Helicoverpa zea, HELIZE, “CEW”), Fall Armyworm (Spodoptera frugiperda, LAPHFR, “FAW”), and Soybean Looper (Chrysodeixis includens, PSEPIN, “SBL”).

[4] = system: Brown Planthopper (Nilaparvata lugens, NILALU, BPH); experiment: Bioassay 6: brown planthopper, sprayed rice seedlings; conditions: AI alone, AI Rate 0.049 g/ha, 6 days
Experimental: At these rates, F1 and the individual active ingredients were tested at a ratio of 1:1. […] F1 and triflumezopyrim were tested at a ratio of 16:1. Test solutions were prepared containing F1, the individual active ingredients, and mixtures of F1 with each of the active ingredients. Test solutions were prepared by weighing 5 mg of each test chemistry (either alone or in combination depending on the treatment) into a 25 mL glass vial. Next, 1 mL of acetone was added to each vial to dissolve the test chemistries, followed by 19 mL of water with 0.125% Tween 20 adjuvant. This test solution represented the 50 g/ha treatment, which was then serially diluted four-fold to create the three lower rates of 12.5, 3.125, and 0.78 g/ha. Triflumezopyrim was prepared in a similar manner, but two additional serial dilutions were conducted to create solutions representing 6 rates of 12.5, 3.125, 0.78, 0.19, 0.049, and 0.012 g/ha. The higher two doses were discarded, and the four lower doses were used for testing. Each rate was replicated four times, and solvent blanks were used as control treatments.
Five (5) rice seedlings (10-12 days old) planted in 3-inch pots were used as test plants. Rice seedlings were grown in soil and the soil was covered with a 2% agar solution. The test solutions were applied to test plants using a Devries laboratory research sprayer, set to spray at 200 liters per hectare (L/ha) using a TeeJet hollow cone nozzle. Following application, the rice seedlings were dried for 1 hour, after which a single clear plastic tube (2 inches in diameter×12 inches in height) was placed over the seedlings in each pot. The tube was pushed down into the agar to create a sealed test chamber. The agar prevented insects from hiding in the soil and made adult collection and grading easier. Ten to fifteen (10-15) 5th instar BPH nymphs were transferred to each test chamber using a vacuum aspirator. Immediately following BPH infestation, the test chamber was covered with a piece of grade 90 cheesecloth and secured with a rubber band, sealing the test chamber. The test chambers were held at 25° C. for 6 days, after which the total number of live insects was counted in each test chamber. Percent control was measured using Abbott's correction formula (W. S. Abbott, J. Econ. Entomol. 18 (1925), pp. 265-267) as follows:
where X=No. of live insects on solvent check and Y=No. of live insects in treated chambers. In Table B6 the “Expected % Control” was calculated using the method described in Colby S. R., Weeds, 1967, 15, 20-22. Bioassay 7: Corn Earworm (Helicoverpa zea, HELIZE, “CEW”), Fall Armyworm (Spodoptera frugiperda, LAPHFR, “FAW”), Beet Armyworm (Spodoptera exigua, LAPHEG, “BAW”),and Soybean Looper (Chrysodeixis includens, PSEPIN, “SBL”).

[5] = system: Soybean Looper (Chrysodeixis includens, PSEPIN, SBL); experiment: Bioassay 4: soybean looper, artificial diet, 128-cell tray; conditions: AI alone, 0.000004 wt %
Method in brief: as §1

[6] = system: Beet Armyworm (Spodoptera exigua, LAPHEG, BAW); experiment: Bioassay 7: beet armyworm, artificial diet, 96 well plate; conditions: AI alone at 0.4 wt %
Experimental: (§2) The test solutions were tested against CEW, FAW, BAW, and SBL using the following procedure: an artificial lepidopteran diet (Multispecies Lepidopteran Diet, Southland Products) was distributed in 96 well plate. Twenty μL of test solution was pipetted onto a cell in the bioassay plate. […] Each treatment was replicated 5 times for each species. Approximately five first instar CEW, FAW, BAW, or SBL larva were placed on top of the diet in each cell and was contained with a clear perforated adhesive lid. Test trays were held at approximately 25° C. and ambient relative humidity prior to grading. After five days, the number of cells where all the larvae were dead were recorded as 100% and averaged across all replicates; then the percent control was measured using Abbott's correction formula (W. S. Abbott, J. Econ. Entomol. 18 (1925), pp. 265-267) as follows:
(§3) where X=No. of live larvae on solvent check and Y=No. of live larvae on treated diet. In Table 7 the “Expected % Control” was calculated using the method described in Colby S. R., Weeds, 1967, 15, 20-22. Bioassay 8: Western Corn Rootworm (Diabrotica virgifera virgifera, DIABVI, “WCR”)

[7] = system: Fall Armyworm (Spodoptera frugiperda, LAPHFR, FAW); experiment: Bioassay 7: fall armyworm, artificial diet, 96 well plate
Experimental: as §2, §3

[8] = system: Western Corn Rootworm (Diabrotica virgifera virgifera, DIABVI, WCR); experiment: Bioassay 8: western corn rootworm, soil drench, corn root protection; conditions: AI alone, DIABVI, soil drench, 13 days
Experimental: Corn seeds were planted in steam pasteurized soil filled greenhouse pots. Western corn rootworm Diabrotica virgifera virgifera eggs supplied from the Corteva Agriscience in Johnston, IA US, were suspended in a 0.08% agar solution added into the soil. Stock solutions of F1 and active ingredients were prepared at a concentration of either 250 or 500 ugai/10 mL for F1 and active ingredients at the ratios of (F1:AI) 1:0.004; 1:0.01; 1:0.02; 1:0.04; 1:0.08; 1:0.1; 1:0.15; 1:0.2; 1:0.4; 1:2; or 1:4, using a 1:1 solution of acetone:water as a diluent. A soil application of solutions were applied as a 10 mL drench over the soil. Plants were grown in the greenhouse for 13 days at 25 C after which the roots were removed from the soil, washed, and measured to determine the length of the median nodal roots. The measured lengths were compared to the infested and un-infested untreated checks to determine the mean percent control offered to protect the corn roots.

[9] = system: Corn Earworm (Helicoverpa zea, HELIZE, CEW); experiment: Bioassay 7: corn earworm, artificial diet, 96 well plate; conditions: AI alone at 0.4 wt %
Experimental: as §2, §3

[10] = system: Soybean Looper (Chrysodeixis includens, PSEPIN, SBL); experiment: Bioassay 7: soybean looper, artificial diet, 96 well plate; conditions: CL; AI alone at 0.4 wt %
Experimental: as §2, §3

Compound: Abamectin
- Average % Control AI ([1]; 0.00004 wt %): 0.0%
- Average % Control AI ([2]; 0.000004 wt %): 0.0%
- Average % Control AI ([2]; 0.00004 wt %): 0.0%
- Average % Control AI ([3]; AI alone at 1:1 rate to F1 3.125 (10^-6 Wt %)): 31.0%
- Average % Control AI [4]: 40.7%

Compound: CCN(C(=O)CCS(C)(=O)=O)c1sc(-c2cccnc2)nc1Cl [AI-1, N-(4-chloro-2-(pyridin-3-yl)thiazol-5-yl)-N-ethyl-3-(methylsulfonyl)propanamide]
- Average % Control AI ([1]; 0.000004 wt %): 0.0%
- Average % Control AI [5]: 12.5%
- Average % Control AI ([2]; 0.000004 wt %): 0.0%
- Average % Control AI ([2]; 0.00004 wt %): 0.0%
- Average % Control AI ([3]; AI alone at 1:1 rate to F1 0.78 (10^-6 Wt %)): 9.5%
- Average % Control AI [4]: 0.0%

Compound: Cn1cc(C(=O)Nc2ccccc2C2CC2C2CC2)c(C(F)F)n1 (centres unmarked) [Sedaxane]
- Average % Control AI [6]: 0.0%
- Average % Control AI ([7]; AI alone at 0.4 wt %): 0.0%
- Average % Control AI ([8]; UgActive AI 10): 0.0%
- Average % Control AI [9]: 0.0%
- Average % Control AI [10]: 0.0%

Compound: Inpyrfluxam
- Average % Control AI ([7]; AI alone at 0.4 wt %): 0.0%
- Average % Control AI ([8]; UgActive AI 1): 0.0%
- Average % Control AI [9]: 12.5%
- Average % Control AI [10]: 0.0%

Compound: CC1(C)[C@H](C(=O)O[C@H](C#N)c2cccc(Oc3ccccc3)c2)[C@@H]1C=C(Br)Br [Deltamethrin]
- Average % Control AI ([7]; AI alone at 0.004 wt %): 0.0%
- Average % Control AI ([8]; UgActive AI 1): 17.0%

Compound: OC(Cc1ccccc1Cl)(Cn1nc[nH]c1=S)C1(Cl)CC1 (centres unmarked) [Prothioconazole]
- Average % Control AI ([8]; UgActive AI 20): 0.0%
- Average % Control AI [9]: 0.0%

Compound: CC1(C)CCC(=Cc2ccc(Cl)cc2)C1(O)Cn1cncn1 (centres unmarked) [Titriconazole]
- Average % Control AI [6]: 0.0%
- Average % Control AI ([8]; UgActive AI 100): 0.0%
- Average % Control AI [9]: 0.0%

Compound: Thiabendazole
- Average % Control AI [6]: 0.0%
- Average % Control AI ([8]; UgActive AI 50): 16.8%
- Average % Control AI [9]: 0.0%

Compound: Spinetoram
- Average % Control AI ([1]; 0.000004 wt %): 0.0%
- Average % Control AI [5]: 25.0%
- Average % Control AI ([2]; 0.000004 wt %): 0.0%
- Average % Control AI ([2]; 0.00004 wt %): 25.0%
- Average % Control AI [4]: 2.5%
